Columns and labels:
[1] = tested on: subjects with moderate-to-severe plaque psoriasis; assay: Elevated liver function tests; assay type: in vivo, human; settings: through Week 56
BD-2 = assay: Serum BD-2 immunoassay; assay type: in vivo, human; settings: all treatment groups vs placebo; as early as Week 4
Method: To evaluate psoriasis relevant systemic biomarkers (Beta-defensin 2 (BD-2), IL-17A, IL-17F, and IL-22), protein concentrations were measured in serum using validated immunoassays. The IL-17A (Catalog #03-0159-00) and IL-17F (Catalog #03-0164-00) assays used are commercially available SMC™-based high sensitivity immunoassays produced by the EMD Millipore Corporation. The manufacturer's protocols were followed and analyzed on the Erenna® instrument platform except for the use of 11 μL Elution Buffer B. While the IL-22 assay is also based on the SMC™ platform and run on the Erenna instrument, the assay was developed internally as a coated plate-based assay. The development and optimization of the BD-2 assay was done on the Meso Scale Discovery on the electrochemiluminescence-based platform, a division of Meso Scale Diagnostics LLC (MSD). For all assays, concentration adjustments were made to values measuring below empirically defined LLOQ or empirically defined ULOQ values. Assay QC verified performance of generated standard curves (average concentration recovery & CV of technical replicates) and control samples (inter-assay plate agreement (CV)).
Serum levels of psoriasis disease biomarkers BD-2, IL-22, IL-17A, and IL-17F relative to baseline were analyzed in patients who received placebo or the compound of Formula (I) and compared to clinical response. […]

[2] = 25 mg BID, at least 1 post-baseline value
[3] = 25 mg BID, baseline ≤ULN and at least 1 post-baseline value
[4] = 25 mg QD, at least 1 post-baseline value
[5] = 25 mg QD, baseline ≤ULN and at least 1 post-baseline value
[6] = 50 mg QD, at least 1 post-baseline value
[7] = 50 mg QD, baseline ≤ULN and at least 1 post-baseline value
[8] = 100 mg BID, at least 1 post-baseline value
[9] = 100 mg BID, baseline ≤ULN and at least 1 post-baseline value
[10] = 100 mg QD, at least 1 post-baseline value
[11] = 100 mg QD, baseline ≤ULN and at least 1 post-baseline value
[12] = Combined, at least 1 post-baseline value
[13] = Combined, baseline ≤ULN and at least 1 post-baseline value
[14] = Placebo → 100 mg QD, at least 1 post-baseline value
[15] = Placebo → 100 mg QD, baseline ≤ULN and at least 1 post-baseline value

CC(=O)NCCCC[C@@H]1NC(=O)[C@H](Cc2c[nH]c3c(C)cccc23)NC(=O)[C@H]([C@@H](C)O)NC(=O)[C@H](CC(N)=O)NC(=O)[C@@H](NC(C)=O)C(C)(C)SSC(C)(C)[C@@H](C(=O)N[C@@H](Cc2ccc(OCCN)cc2)C(=O)N[C@@H](Cc2ccc3ccccc3c2)C(=O)NC2(C(=O)N[C@@H](CCC(=O)O)C(=O)N[C@@H](CC(N)=O)C(=O)N[C@@H](Cc3cccnc3)C(=O)N(C)CC(N)=O)CCOCC2)NC1=O [IL-23 receptor antagonist peptide, Ac-[Pen]*-N-T-[W(7-Me)]-[Lys(Ac)]-[Pen]*-Phe[4-(2-aminoethoxy)]-[2-Nal]-[THP]-E-N-[3-Pal]-Sarc-NH2 (*[Pen]-[Pen]* formdisulfidebond)]
7: Subjects with ALT >1 × ULN [1, 4]
4: Subjects with AST >1 × ULN [1, 9]
5: Subjects with ALT ≥3 × ULN [1, 8]
9: Subjects with AST >1 × ULN [1, 10]
0: Subjects with Total Bilirubin >2 × ULN and either AST or ALT ≥3 × ULN at the same timepoint ([1]; 25 mg BID) | Subjects with ALT ≥5 × ULN [1, 2] | Subjects with ALT ≥10 × ULN [1, 2] | Subjects with ALT ≥20 × ULN [1, 2] | Subjects with AST ≥5 × ULN [1, 2] | Subjects with AST ≥10 × ULN [1, 2] | Subjects with AST ≥20 × ULN [1, 2] | Subjects with ALT ≥5 × ULN [1, 3] | Subjects with ALT ≥10 × ULN [1, 3] | Subjects with ALT ≥20 × ULN [1, 3] | Subjects with AST ≥5 × ULN [1, 3] | Subjects with AST ≥10 × ULN [1, 3] | Subjects with AST ≥20 × ULN [1, 3] | Subjects with Total Bilirubin >2 × ULN and either AST or ALT ≥3 × ULN at the same timepoint ([1]; 25 mg QD) | Subjects with ALT ≥10 × ULN [1, 4] | Subjects with ALT ≥20 × ULN [1, 4] | Subjects with AST ≥5 × ULN [1, 4] | Subjects with AST ≥10 × ULN [1, 4] | Subjects with AST ≥20 × ULN [1, 4] | Subjects with ALT ≥10 × ULN [1, 5] | Subjects with ALT ≥20 × ULN [1, 5] | Subjects with AST ≥5 × ULN [1, 5] | Subjects with AST ≥10 × ULN [1, 5] | Subjects with AST ≥20 × ULN [1, 5] | Subjects with Total Bilirubin >2 × ULN and either AST or ALT ≥3 × ULN at the same timepoint ([1]; 50 mg QD) | Subjects with ALT ≥3 × ULN [1, 6] | Subjects with ALT ≥5 × ULN [1, 6] | Subjects with ALT ≥10 × ULN [1, 6] | Subjects with ALT ≥20 × ULN [1, 6] | Subjects with AST ≥3 × ULN [1, 6] | Subjects with AST ≥5 × ULN [1, 6] | Subjects with AST ≥10 × ULN [1, 6] | Subjects with AST ≥20 × ULN [1, 6] | Subjects with ALT ≥3 × ULN [1, 7] | Subjects with ALT ≥5 × ULN [1, 7] | Subjects with ALT ≥10 × ULN [1, 7] | Subjects with ALT ≥20 × ULN [1, 7] | Subjects with AST ≥3 × ULN [1, 7] | Subjects with AST ≥5 × ULN [1, 7] | Subjects with AST ≥10 × ULN [1, 7] | Subjects with AST ≥20 × ULN [1, 7] | Subjects with Total Bilirubin >2 × ULN and either AST or ALT ≥3 × ULN at the same timepoint ([1]; 100 mg BID) | Subjects with ALT ≥5 × ULN [1, 8] | Subjects with ALT ≥10 × ULN [1, 8] | Subjects with ALT ≥20 × ULN [1, 8] | Subjects with AST ≥10 × ULN [1, 8] | Subjects with AST ≥20 × ULN [1, 8] | Subjects with ALT ≥5 × ULN [1, 9] | Subjects with ALT ≥10 × ULN [1, 9] | Subjects with ALT ≥20 × ULN [1, 9] | Subjects with AST ≥10 × ULN [1, 9] | Subjects with AST ≥20 × ULN [1, 9] | Subjects with Total Bilirubin >2 × ULN and either AST or ALT ≥3 × ULN at the same timepoint ([1]; 100 mg QD) | Subjects with ALT ≥5 × ULN [1, 10] | Subjects with ALT ≥10 × ULN [1, 10] | Subjects with ALT ≥20 × ULN [1, 10] | Subjects with AST ≥5 × ULN [1, 10] | Subjects with AST ≥10 × ULN [1, 10] | Subjects with AST ≥20 × ULN [1, 10] | Subjects with ALT ≥5 × ULN [1, 11] | Subjects with ALT ≥10 × ULN [1, 11] | Subjects with ALT ≥20 × ULN [1, 11] | Subjects with AST ≥5 × ULN [1, 11] | Subjects with AST ≥10 × ULN [1, 11] | Subjects with AST ≥20 × ULN [1, 11] | Subjects with Total Bilirubin >2 × ULN and either AST or ALT ≥3 × ULN at the same timepoint ([1]; Combined) | Subjects with ALT ≥10 × ULN [1, 12] | Subjects with ALT ≥20 × ULN [1, 12] | Subjects with AST ≥10 × ULN [1, 12] | Subjects with AST ≥20 × ULN [1, 12] | Subjects with ALT ≥10 × ULN [1, 13] | Subjects with ALT ≥20 × ULN [1, 13] | Subjects with AST ≥10 × ULN [1, 13] | Subjects with AST ≥20 × ULN [1, 13] | Subjects with Total Bilirubin >2 × ULN and either AST or ALT ≥3 × ULN at the same timepoint ([1]; Placebo → 100 mg QD) | Subjects with ALT ≥5 × ULN [1, 14] | Subjects with ALT ≥10 × ULN [1, 14] | Subjects with ALT ≥20 × ULN [1, 14] | Subjects with AST ≥10 × ULN [1, 14] | Subjects with AST ≥20 × ULN [1, 14] | Subjects with ALT ≥5 × ULN [1, 15] | Subjects with ALT ≥10 × ULN [1, 15] | Subjects with ALT ≥20 × ULN [1, 15] | Subjects with AST ≥10 × ULN [1, 15] | Subjects with AST ≥20 × ULN [1, 15]
Statistically significant reduction: BD-2 serum levels (BD-2)
